# Laboratory results from patent US20120058936A1, “COMPOSITIONS AND METHODS FOR ELIMINATION OF GRAM NEGATIVE BACTERIA” (ASSISTANCE PUBLIQUE - HOPITAUX DE PARIS, priority 2009, published 2012).
# “Also recorded” adds a separate entry of the source.
# What was measured:
# [1] = test system: enterobacteria present in the colon; conditions: oral treatment; azithromycin daily dose of 500 mg; cited from earlier work
# [2] = BioDis (USP III) release test in simulated human gastrointestinal fluids; format: physicochemical; conditions: Biodiss system; successively soaked in simulated gastric, proximal jejunum, late jejunum, ileum and colon fluids (FIG. 2)
# Description: In a particular embodiment, the intermediate coating is selected in order to achieve a delayed and/or controlled release of the antibacterial, as measured by in vitro testing such as BioDis dissolution tester (USP III release apparatus). In this system, the dosage form is successively placed into glass tubes (filled with approx 200 mL of dissolution media) corresponding to the different sections of the gastrointestinal tract, such as described by Fotaki and Coll, in European Journal of Pharmaceutics and Biopharmaceutics 73 (2009) 115-120. This allows a good simulation of in vivo release before testing into mammals. pH, fed state and various other physiological conditions can be tested. Using the BioDis system, it is possible for those skilled in the art to finely tune the formulation to achieve a desired pre-determined delayed release. It will be understood that this method is also useful for testing any kind of drug delivery system intended to deliver the antimicrobial(s) in a desired part of the intestine.
# Legend: FIG. 1: Release of azithromycine in simulated human gastrointestinal tract using a Biodis system. The azithromycin cellet formulation, coated with 35% FS30D (Batch GL-058B4), is successively soaked into simulated fluids such as gastric, proximal jejunum, late jejunum, Ileum and colon. […]
# erythrocyte = conditions: MIC for many bacteria; cited from earlier work
Molecule,elimination of enterobacteria from the colon [1],further results
CC[C@H]1OC(=O)[C@H](C)[C@@H](O[C@H]2C[C@@](C)(OC)[C@@H](O)[C@H](C)O2)[C@H](C)[C@@H](O[C@@H]2O[C@H](C)C[C@H](N(C)C)[C@H]2O)[C@](C)(O)C[C@@H](C)CN(C)[C@H](C)[C@@H](O)[C@]1(C)O [Azithromycin],effective to eliminate Gram-negative enterobacteria from the colon,–
CC[C@H]1OC(=O)[C@H](C)[C@@H](O[C@H]2C[C@@](C)(OC)[C@@H](O)[C@H](C)O2)[C@H](C)[C@@H](O[C@@H]2O[C@H](C)C[C@H](N(C)C)[C@H]2O)[C@](C)(O)C[C@@H](C)C(=O)[C@H](C)[C@@H](O)[C@]1(C)O [erythromycin],eliminated from the lumen,–
colistin,–,Release of colistin in simulated human gastrointestinal tract [2]: improves the release of colistin; also recorded: prevent from total colistin release
gramicidin S,–,concentration causing erythrocyte lysis relative to the MIC (erythrocyte): threefold higher than the MIC
